Assays:
[1] = system: mouse bone marrow derived macrophages (BMDMs); experiment: BMDM transwell migration assay; assay type: cell-based, C57BL/6 mouse; conditions: 10 hours, 10% FBS as chemo-attractant
Source text: (§1) Figure 6 ERG240 treatment results in reduced macrophage infiltration in CIA and crescentic glomerulonephritis. (a) Inhibition of murine BMDM migration in vitro in the presence of different concentrations of ERG240 by transwell migration assay (left panel, results are presented as the average of four experiments). The drug had no effect on cell viability (right panel, results are presented as the average of three experiments). (b) IHC analysis of CIA joints for expression of F4/80. Representative images show F4/80+ cells (indicated with an arrow). F4/80+ cell quantification is shown on the right panel. (c) Representative images showing glomerular ED1 (rat CD68)-positive cells in ERG240 treated animals following NTN. Percentage of glomerular ED1-positive cell quantification is shown on the right panel. Error bars are s.e.m. […]
(§2) The migration of BMDMs was assessed using a modified Bo yden chamber methodology. […]
(§3) To determine the effect of ERG240 on the total number of BMDMs, cell s were plated onto a 96-well plate at a density of 5,000 cells per well in complete media and allowed to adhere overnight. The cells were then exposed to various drug concentrations overnight and the cell population was quantified with CyQuant Cell Proliferation kit (Life Technologies) using triplicates, in two independent experiments. For hMDMs, cell viability was determined using the alamarBlue® Assa y (Invitrogen). […]

[2] = system: mouse bone marrow derived macrophages (BMDMs); experiment: BMDM cell number (CyQuant); assay type: cell-based, C57BL/6 mouse; conditions: treatment for 24 h
Source text: as §1, §2, §3

`CC(=O)C(C)CCC(=O)O` (centres unmarked) [ERG240] was tested, and the IC50 [1] was 5 to 10 mM and the BMDM cell numbers [2] was “did not affect cell numbers”.

Reference: publication PMC5510229, “BCAT1 controls metabolic reprogramming in activated human macrophages and is associated with inflammatory diseases” (Nature Communications, 2017)
